System: C3H cells
Test: Rodlet formation
Assay type: cell-based, mouse
Details: 10-20 μM, 1 h

Structure (SMILES): CC1=C[C@@H]2/C=C(\C)CC[C@H](O)[C@H](O)/C=C/C(=O)[C@]23C(=O)N[C@@H](CC(C)C)[C@@H]3[C@@H]1C [AsD, Aspochalasin D]
- Number of rodlets within a single cell: 1-127

Source: PMC2112011 (The Journal of Cell Biology, 1982)
